Measurements published in the supplement of paper PMC10307832.

Experiments:
Experiment in all cases: relative viability (nuclei count vs DMSO), 5 days (fraction); higher = more cells survive
[1] = compound: COc1nc(N)nc2c1ncn2[C@@H]1O[C@H](CO)[C@@H](O)[C@@H]1O [Nelarabine] + COc1cccc2cc(-c3nc([C@H]4CC[C@H](C(=O)O)CC4)n4ncnc(N)c34)[nH]c12 [OSI-027] (partner 0.5 µM)
Method in brief: (§1)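 A single step with final 0.05% Triton X-100, 1% formaldehyde and 1 ug/ml Hoechst fixed the cells and stained nuclei 5 days after treatment. Lung cancer cell lines in 1536-well plates had been treated by pin tool the day after seeding with one drug alone or a fixed anchor-drug dose plus five library-drug doses (not always all listed) in √10 steps, and nuclei were counted on 4× images. Relative viability is the ratio of nuclei in treated wells to nuclei in vehicle wells, taken as the median of duplicate plates.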

[2] = compound: C=CCn1c(=O)c2cnc(Nc3ccc(N4CCN(C)CC4)cc3)nc2n1-c1cccc(C(C)(C)O)n1 [Adavosertib] + C[C@@H](Oc1cc(-c2cnn(C3CCNCC3)c2)cnc1N)c1c(Cl)ccc(F)c1Cl [Crizotinib] (partner 1 µM)
Method in brief: as §1

[3] = compound: C=CCn1c(=O)c2cnc(Nc3ccc(N4CCN(C)CC4)cc3)nc2n1-c1cccc(C(C)(C)O)n1 [Adavosertib] + CCNC(=O)c1noc(-c2cc(C(C)C)c(O)cc2O)c1-c1ccc(CN2CCOCC2)cc1 [Luminespib] (partner 0.01 µM)
Method in brief: as §1

[4] = compound: C=CCn1c(=O)c2cnc(Nc3ccc(N4CCN(C)CC4)cc3)nc2n1-c1cccc(C(C)(C)O)n1 [Adavosertib] + Nc1nc2[nH]cc(CCc3ccc(C(=O)N[C@@H](CCC(=O)O)C(=O)O)cc3)c2c(=O)[nH]1 [Pemetrexed] (partner 0.2 µM)
Method in brief: as §1

Cell Line	relative viability ([1]; first compound 0.01 µM)	relative viability ([1]; first compound 0.03162 µM)	relative viability ([1]; first compound 0.1 µM)	relative viability ([1]; first compound 0.3162 µM)	relative viability ([1]; first compound 1 µM)	relative viability ([2]; first compound 0.01 µM)	relative viability ([2]; first compound 0.03162 µM)	relative viability ([2]; first compound 0.1 µM)	relative viability ([2]; first compound 0.3162 µM)	relative viability ([3]; first compound 0.01 µM)	relative viability ([3]; first compound 0.03162 µM)	relative viability ([3]; first compound 0.1 µM)	relative viability ([3]; first compound 0.3162 µM)	relative viability ([4]; first compound 0.03162 µM)	relative viability ([4]; first compound 0.1 µM)	relative viability ([4]; first compound 0.3162 µM)	relative viability ([4]; first compound 0.01 µM)
EMC-BAC-2	0.393	0.41	0.398	0.36	0.377	0.846	0.754	0.887	0.811	1.14	1.25	1.18	1.11	0.399	0.357	0.334	
EPLC-272H	0.28	0.248	0.269	0.311	0.233	1.01	1.03	0.797	0.652	0.225	0.549	0.196	0.182	0.258	0.175	0.116	0.33
H3255		0.653	0.637	0.585	0.456	0.87	1.04	1.04	0.936	0.801	1.03	0.937	0.95	0.59	0.563	0.536	0.553
HARA	0.645	0.583	0.439	0.671	0.487	1	1.06	1.04	0.354	0.781	0.795	0.845	0.366	0.22	0.229	0.191	0.244
HCC-15	0.817	0.559	0.675	0.703	0.778	0.826	0.818	0.96	0.967	0.309	0.325	0.334	0.359	0.227	0.216	0.229	0.221
HCC-44	0.568	0.484	0.607	0.518	0.52	0.827	0.856	0.946	0.949	0.982	1.01	0.968	1.3	0.602	0.574	0.433	0.677
HCC-78	0.306	0.35		0.385	0.372	0.34	0.351	0.339	0.347					0.922	0.959	0.887	0.921
HCC-366	1.3	0.737	0.878	1.28	0.973	0.498	0.568	0.701	0.644					0.143	0.136	0.0818	0.227
HCC-827	0.741	0.738	0.76	0.595	0.65	0.895	0.943	1.03	0.929	0.598	0.774	0.42	0.667	0.223	0.284	0.245	0.283
HOP-62	0.981	0.866	0.971	0.941	0.838	0.986	0.905	1.04	0.955	0.997	0.906	0.909	0.945	0.285	0.283	0.224	0.311
